Consider 64 substances from PMC7932537, “Quantitative profiling of protease specificity” (PLoS Computational Biology, 2021).

In one assay the target is T1, MMP-2 (Homo sapiens, UniProt P08253).
T1 sequence (P08253 110-660): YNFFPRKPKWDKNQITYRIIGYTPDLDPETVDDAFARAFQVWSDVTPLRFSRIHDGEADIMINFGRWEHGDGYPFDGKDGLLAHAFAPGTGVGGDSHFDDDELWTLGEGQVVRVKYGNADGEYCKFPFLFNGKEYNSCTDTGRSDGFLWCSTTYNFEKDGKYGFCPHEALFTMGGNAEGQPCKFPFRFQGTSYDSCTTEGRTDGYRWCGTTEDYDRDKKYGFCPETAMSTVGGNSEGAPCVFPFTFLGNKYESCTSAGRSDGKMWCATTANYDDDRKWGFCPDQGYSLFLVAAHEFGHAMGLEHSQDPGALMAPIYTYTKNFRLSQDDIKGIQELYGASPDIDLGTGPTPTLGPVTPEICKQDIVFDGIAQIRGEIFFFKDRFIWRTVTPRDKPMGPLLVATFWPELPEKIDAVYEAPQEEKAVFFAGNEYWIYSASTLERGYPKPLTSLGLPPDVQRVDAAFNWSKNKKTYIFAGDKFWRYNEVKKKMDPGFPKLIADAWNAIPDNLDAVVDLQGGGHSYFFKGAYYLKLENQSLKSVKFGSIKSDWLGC
Put plainly: K(obs) of individual phage substrates (set of 1369). The format is biochemical. The settings on record: MMP2.

In a further assay the target is MMP-9 (Homo sapiens, UniProt P14780). The description is as above. In kind it is biochemical. Conditions: MMP9, individual phage substrates, set of 1369 peptides.
Where [1] appears, read: individual phage substrates, set of 1369 peptides, cleavage position marked by '-' in the sequence.
Where [2] appears, read: '-' marks the cleavage position (P1-P1').
Where [3] appears, read: individual phage substrate from the set of 1369 peptides, cleavage position marked by the dash in the sequence.
Where [4] appears, read: dash in sequence marks cleavage position.

MMP-9, sequence (P14780 94-707): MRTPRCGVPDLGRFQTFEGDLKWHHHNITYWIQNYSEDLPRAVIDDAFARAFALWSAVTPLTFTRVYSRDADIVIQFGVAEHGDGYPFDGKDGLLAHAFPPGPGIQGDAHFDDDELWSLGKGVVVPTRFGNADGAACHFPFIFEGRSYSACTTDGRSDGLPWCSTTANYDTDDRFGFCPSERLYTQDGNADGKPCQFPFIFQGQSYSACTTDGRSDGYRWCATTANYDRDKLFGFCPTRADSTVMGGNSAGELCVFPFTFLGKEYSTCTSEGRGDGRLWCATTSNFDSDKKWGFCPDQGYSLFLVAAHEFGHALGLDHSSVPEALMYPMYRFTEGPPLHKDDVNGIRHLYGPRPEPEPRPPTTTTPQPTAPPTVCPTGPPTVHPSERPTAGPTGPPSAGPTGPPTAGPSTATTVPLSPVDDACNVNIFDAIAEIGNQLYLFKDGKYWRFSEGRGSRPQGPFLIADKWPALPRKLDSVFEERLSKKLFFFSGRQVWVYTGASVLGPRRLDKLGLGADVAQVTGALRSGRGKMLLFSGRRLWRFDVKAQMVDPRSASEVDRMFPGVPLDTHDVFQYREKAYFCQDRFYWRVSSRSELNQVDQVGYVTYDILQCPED

SGVFN-LAFTA: the “Kobs” value at MMP-2 (setting [1]) amounted to 912.511 M⁻¹ s⁻¹; at MMP-9 (setting [2]), 201.585 M⁻¹ s⁻¹.
As to SGVFS-LKLTA, the “Kobs” value at MMP-2 (setting [3]) was found to be 654.784 M⁻¹ s⁻¹; on MMP-9 (setting [4]), 551.253 M⁻¹ s⁻¹.
Consider SGVGA-LNKTA, for which the results for the “Kobs” value at MMP-2 (setting [3]) and at MMP-9 (setting [4]) were 836.403 M⁻¹ s⁻¹ and 56.119 M⁻¹ s⁻¹, respectively.
For SGVGM-LYNTA, the “Kobs” value on MMP-2 (setting [3]) is 1373.05 M⁻¹ s⁻¹; on MMP-9 (setting [4]), 0 M⁻¹ s⁻¹.
For SGVHR-LSYTA, the “Kobs” value at MMP-2 (setting [3]) and at MMP-9 (setting [4]) was 0 M⁻¹ s⁻¹ throughout.
Take SGVKF-LFNTA: the “Kobs” value is 0 M⁻¹ s⁻¹ on MMP-2 (setting [3]) and 113.394 M⁻¹ s⁻¹ on MMP-9 (setting [4]).
In the case of SGVLS-LRYTA, the “Kobs” value stood at 1154.21 M⁻¹ s⁻¹ at MMP-2 (setting [1]) and 2837.92 M⁻¹ s⁻¹ on MMP-9 (setting [2]).
For the substance SGVMK-LQKTA, the “Kobs” value on MMP-2 (setting [3]) and at MMP-9 (setting [4]) was 0 M⁻¹ s⁻¹ each time.
Consider SGVMR-LVVTA, for which the “Kobs” value at MMP-2 (setting [3]) stood at 0 M⁻¹ s⁻¹; at MMP-9 (setting [4]), 171.876 M⁻¹ s⁻¹.
For SGVMY-LQVTA, in that order: 0 M⁻¹ s⁻¹ and 654.784 M⁻¹ s⁻¹.
For the substance SGVNL-LLMTA, the figures for the “Kobs” value at MMP-2 (setting [1]) and on MMP-9 (setting [2]) were 27.918 M⁻¹ s⁻¹ and 0 M⁻¹ s⁻¹, respectively.
On to SGVNR-ISLTA, for which the “Kobs” value is 113.394 M⁻¹ s⁻¹ at MMP-2 (setting [3]) and 0 M⁻¹ s⁻¹ on MMP-9 (setting [4]).
For SGVNS-LFTTA, in that order: 323.705 M⁻¹ s⁻¹ and 0 M⁻¹ s⁻¹.
For SGVNS-LRRTA, the “Kobs” value was determined as 726.013 M⁻¹ s⁻¹ at MMP-2 (setting [1]) and 0 M⁻¹ s⁻¹ at MMP-9 (setting [2]).
The matching figures for SGVRA-LISTA: 12792.1 M⁻¹ s⁻¹ and 12792.1 M⁻¹ s⁻¹.
Regarding SGVRF-MRQTA, the “Kobs” value at MMP-2 (setting [3]) was 231.616 M⁻¹ s⁻¹; at MMP-9 (setting [4]) it was 1513.13 M⁻¹ s⁻¹.
Regarding SGVRM-LRRTA, the figures for the “Kobs” value on MMP-2 (setting [1]) and at MMP-9 (setting [2]) were 799.117 M⁻¹ s⁻¹ and 2157.02 M⁻¹ s⁻¹, respectively.
As to SGVWG-IRYTA, the “Kobs” value worked out at 654.784 M⁻¹ s⁻¹ on MMP-2 (setting [1]) and 1925.41 M⁻¹ s⁻¹ at MMP-9 (setting [2]).
Consider SGVWP-LVKTA, for which the “Kobs” value at MMP-2 (setting [3]) and on MMP-9 (setting [4]) was 0 M⁻¹ s⁻¹ each time.
On to SGVYR-LELTA, for which the “Kobs” value at MMP-2 (setting [3]) worked out at 113.394 M⁻¹ s⁻¹; on MMP-9 (setting [4]), 0 M⁻¹ s⁻¹.
Consider SGWAS-MRLTA, for which the “Kobs” value on MMP-2 (setting [1]) was found to be 0 M⁻¹ s⁻¹; at MMP-9 (setting [2]), 142.481 M⁻¹ s⁻¹.
On to SGWLN-LRSTA, for which the “Kobs” value amounted to 1154.21 M⁻¹ s⁻¹ on MMP-2 (setting [3]) and 726.013 M⁻¹ s⁻¹ at MMP-9 (setting [4]).
In the case of SGYAG-LRQTA, the “Kobs” value at MMP-2 (setting [1]) is 231.616 M⁻¹ s⁻¹; on MMP-9 (setting [2]) it was 0 M⁻¹ s⁻¹.
With SGYAH-MRVTA, the “Kobs” value at MMP-2 (setting [1]) and at MMP-9 (setting [2]) was 0 M⁻¹ s⁻¹ each time.
SGYLP-LLYTA: the “Kobs” value at MMP-2 (setting [1]) came out at 1196.62 M⁻¹ s⁻¹; on MMP-9 (setting [2]), 12792.1 M⁻¹ s⁻¹.
The matching figures for SGYMH-IKVTA: 0 M⁻¹ s⁻¹ and 0 M⁻¹ s⁻¹.
As to SGYRF-MTLTA, the “Kobs” value at MMP-2 (setting [1]) and at MMP-9 (setting [2]) was 0 M⁻¹ s⁻¹ each time.
Regarding SIPNA-LTASG, the “Kobs” value at MMP-2 (setting [1]) turned out to be 12792.1 M⁻¹ s⁻¹; at MMP-9 (setting [2]), 9740.44 M⁻¹ s⁻¹.
SKIRF-LTASG: the entries for the “Kobs” value at MMP-2 (setting [3]) and at MMP-9 (setting [4]) were 5269.78 M⁻¹ s⁻¹ and 9740.44 M⁻¹ s⁻¹, respectively.
On to SKVLF-LTASG, for which the “Kobs” value on MMP-2 (setting [1]) and at MMP-9 (setting [2]) was 3079.62 M⁻¹ s⁻¹ throughout.
For SLPAH-ITASG, the figures for the “Kobs” value on MMP-2 (setting [3]) and on MMP-9 (setting [4]) were 12792.1 M⁻¹ s⁻¹ and 5461.43 M⁻¹ s⁻¹, respectively.
For the substance SLYRA-LTASG, the “Kobs” value on MMP-2 (setting [1]) turned out to be 7386.83 M⁻¹ s⁻¹; at MMP-9 (setting [2]), 5667.28 M⁻¹ s⁻¹.
For the substance SMPRM-LTASG, the results for the “Kobs” value at MMP-2 (setting [1]) and at MMP-9 (setting [2]) were 12792.1 M⁻¹ s⁻¹ and 10866.7 M⁻¹ s⁻¹, respectively.
Regarding SPAHG-LTASG, the “Kobs” value at MMP-2 (setting [3]) turned out to be 10866.7 M⁻¹ s⁻¹; on MMP-9 (setting [4]), 1239.69 M⁻¹ s⁻¹.
SPALD-MTASG: the “Kobs” value on MMP-2 (setting [3]) stood at 0 M⁻¹ s⁻¹; at MMP-9 (setting [4]), 231.616 M⁻¹ s⁻¹.
With SRPLN-LTASG, the “Kobs” value on MMP-2 (setting [3]) is 6688.74 M⁻¹ s⁻¹; on MMP-9 (setting [4]), 7386.83 M⁻¹ s⁻¹.
In the case of SRPRM-LTASG, the “Kobs” value at MMP-2 (setting [3]) was found to be 7815.03 M⁻¹ s⁻¹; at MMP-9 (setting [4]), 8321.48 M⁻¹ s⁻¹.
Regarding SRVLP-LTASG, the “Kobs” value amounted to 4613.14 M⁻¹ s⁻¹ at MMP-2 (setting [3]) and 1711.63 M⁻¹ s⁻¹ on MMP-9 (setting [4]).
In the case of SRVRN-LTASG, the “Kobs” value turned out to be 8321.48 M⁻¹ s⁻¹ at MMP-2 (setting [1]) and 4470.66 M⁻¹ s⁻¹ on MMP-9 (setting [2]).
Consider SSPLY-LTASG, for which the “Kobs” value on MMP-2 (setting [1]) and at MMP-9 (setting [2]) was 12792.1 M⁻¹ s⁻¹ in each case.
Regarding SSYAH-LTASG, the “Kobs” value on MMP-2 (setting [1]) was 5269.78 M⁻¹ s⁻¹; at MMP-9 (setting [2]), 0 M⁻¹ s⁻¹.
As to STVRN-LTASG, the “Kobs” value came to 12792.1 M⁻¹ s⁻¹ on MMP-2 (setting [1]) and 4470.66 M⁻¹ s⁻¹ at MMP-9 (setting [2]).
For SVARN-LTASG, the “Kobs” value at MMP-2 (setting [1]) is 10866.7 M⁻¹ s⁻¹; at MMP-9 (setting [2]), 4205.91 M⁻¹ s⁻¹.
As for SWGLA-LTASG, the “Kobs” value worked out at 619.843 M⁻¹ s⁻¹ on MMP-2 (setting [1]) and 690.17 M⁻¹ s⁻¹ at MMP-9 (setting [2]).
SYMFS-LTASG: the entries for the “Kobs” value at MMP-2 (setting [1]) and on MMP-9 (setting [2]) were 56.119 M⁻¹ s⁻¹ and 113.394 M⁻¹ s⁻¹, respectively.
In the case of TALGY-LTASG, the “Kobs” value was 12792.1 M⁻¹ s⁻¹ at MMP-2 (setting [1]) and 323.705 M⁻¹ s⁻¹ on MMP-9 (setting [2]).
As for TAPIN-LTASG, the “Kobs” value on MMP-2 (setting [1]) and at MMP-9 (setting [2]) was 12792.1 M⁻¹ s⁻¹ in each case.
For the substance TAVRS-LTASG, the figures for the “Kobs” value on MMP-2 (setting [3]) and at MMP-9 (setting [4]) were 12792.1 M⁻¹ s⁻¹ and 5889.62 M⁻¹ s⁻¹, respectively.
Take TGSWP-LTASG: the “Kobs” value at MMP-2 (setting [3]) turned out to be 0 M⁻¹ s⁻¹; at MMP-9 (setting [4]), 113.394 M⁻¹ s⁻¹.
Turning to TKVLW-LTASG, the “Kobs” value worked out at 4763.33 M⁻¹ s⁻¹ at MMP-2 (setting [1]) and 10866.7 M⁻¹ s⁻¹ at MMP-9 (setting [2]).
On to TLPHS-LTASG, for which the entries for the “Kobs” value on MMP-2 (setting [3]) and on MMP-9 (setting [4]) were 12792.1 M⁻¹ s⁻¹ and 9740.44 M⁻¹ s⁻¹, respectively.
In the case of TLTHH-LTASG, the “Kobs” value at MMP-2 (setting [1]) and at MMP-9 (setting [2]) was 0 M⁻¹ s⁻¹ throughout.
For the substance TMAHP-LTASG, the figures for the “Kobs” value on MMP-2 (setting [1]) and at MMP-9 (setting [2]) were 6688.74 M⁻¹ s⁻¹ and 4470.66 M⁻¹ s⁻¹, respectively.
On to TMPYL-LTASG, for which the entries for the “Kobs” value at MMP-2 (setting [3]) and on MMP-9 (setting [4]) were 1870.4 M⁻¹ s⁻¹ and 7815.03 M⁻¹ s⁻¹, respectively.
TPVGW-MTASG: the “Kobs” value on MMP-2 (setting [1]) was determined as 12792.1 M⁻¹ s⁻¹; at MMP-9 (setting [2]), 5269.78 M⁻¹ s⁻¹.
As for TRMAL-LTASG, the “Kobs” value was 3438.54 M⁻¹ s⁻¹ at MMP-2 (setting [3]) and 84.609 M⁻¹ s⁻¹ on MMP-9 (setting [4]).
Regarding TRPQH-LTASG, the entries for the “Kobs” value on MMP-2 (setting [1]) and on MMP-9 (setting [2]) were 10866.7 M⁻¹ s⁻¹ and 7815.03 M⁻¹ s⁻¹, respectively.
In the case of TSVLA-LTASG, the “Kobs” value on MMP-2 (setting [1]) worked out at 8321.48 M⁻¹ s⁻¹; at MMP-9 (setting [2]), 4335.13 M⁻¹ s⁻¹.
With TTALW-LTASG, the “Kobs” value worked out at 6131.32 M⁻¹ s⁻¹ at MMP-2 (setting [3]) and 4922.1 M⁻¹ s⁻¹ at MMP-9 (setting [4]).
Regarding TTSAS-LTASG, the “Kobs” value on MMP-2 (setting [3]) was found to be 3165.09 M⁻¹ s⁻¹; on MMP-9 (setting [4]), 171.876 M⁻¹ s⁻¹.
Consider TTSLR-LTASG, for which the “Kobs” value amounted to 0 M⁻¹ s⁻¹ on MMP-2 (setting [3]) and 84.609 M⁻¹ s⁻¹ on MMP-9 (setting [4]).
Regarding TVLRS-LTASG, the “Kobs” value on MMP-2 (setting [1]) was found to be 12792.1 M⁻¹ s⁻¹; at MMP-9 (setting [2]) it was 3536.02 M⁻¹ s⁻¹.
For the substance TVSLP-LTASG, the “Kobs” value at MMP-2 (setting [3]) was determined as 2097.28 M⁻¹ s⁻¹; on MMP-9 (setting [4]), 355.093 M⁻¹ s⁻¹.
For the substance TWAKM-LTASG, the figures for the “Kobs” value on MMP-2 (setting [3]) and on MMP-9 (setting [4]) were 0 M⁻¹ s⁻¹ and 292.668 M⁻¹ s⁻¹, respectively.
